Each structure is given as a SMILES string. “And” between values parts separate entries of the source, which are not always exact repeats. Equal values may be shown once.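 All cell lines were grown in 96-well plates and treated with compound for 48 hours. GI50: concentration for 50% inhibition of growth. TGI: concentration producing complete growth inhibition.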 *1 amine or outer side, *2 acyl side, *3 side chain or, on linkers, in order; H or OH if unused. Where a SMILES comes first, the peptide text is derived from it. [ ]: non-standard residue; d: D form. The star is where a group is joined. X31 = CC(=O)N(C)SCC(N[*:1])C(=O)[*:2]; Fmoc = O=C(OCC1c2ccccc2-c2ccccc21)*; For = O=C*

Some test systems named below: EKVX NSCLC; IGROV1 ovarian; LOX IMVI melanoma.
What all share (assay): inhibition of tumour cell growth, NCI panel, 48 h

Turning to `CC(C)(CN)SCc1ccccc1`, the TGI in the assay with EKVX NSCLC, in the assay on IGROV1 ovarian and in the assay with LOX IMVI melanoma was more than 100 µM each time.
Consider `COC(=O)CNCC1OC2OC(C)(C)OC2C1N=[N+]=[N-]` (centres undefined), for which the TGI with EKVX NSCLC, in the assay on IGROV1 ovarian and in the assay with LOX IMVI melanoma was more than 100 µM each time.
With `CCCN(CCC)C(=O)c1c(Cl)c2cccnc2n2c(C)cnc12`, the TGI with EKVX NSCLC, with IGROV1 ovarian and in the assay with LOX IMVI melanoma was more than 100 µM each time.
Take `CCOC(=O)Oc1ccc2c(c1)c(=O)c1c(NCCCN(CC)CC)ccc3nnn2c31`: the TGI with EKVX NSCLC came out at 23 µM; with IGROV1 ovarian it was 34.2 µM; with LOX IMVI melanoma, 12 µM.
The like results for `CC(=O)/C(=C(/Br)I)c1ccccc1` were, in that order, 26.5 µM, 49.3 µM and 22.5 µM.
The like results for `N#Cc1c(N2CCOCC2)ncn(-c2ccc(Cl)cc2)c1=O` were, in that order, more than 100 µM, more than 100 µM and more than 100 µM.
In the case of `C/C(=N\NC(=S)Nc1ccc(Cl)cc1)c1nc2ncccc2[nH]1`, the figures for the TGI in the assay with EKVX NSCLC, in the assay on IGROV1 ovarian and with LOX IMVI melanoma were 13.1 µM, 21.5 µM and 13.1 µM, respectively.
Take `COC(=O)[C@@H]1[C@H](O)CC[C@H]2[C@@]1(C)CC[C@@H](C)[C@]2(COC(C)=O)CC(=O)c1ccoc1`: the TGI in the assay with EKVX NSCLC, in the assay with IGROV1 ovarian and in the assay on LOX IMVI melanoma was more than 50 µM in each case.
In the case of `CC(Cc1ccc2c(c1)OCO2)N(C)C(=O)C1=CCN(C)CC1` (centres undefined), the TGI with EKVX NSCLC, in the assay with IGROV1 ovarian and with LOX IMVI melanoma was more than 100 µM throughout.
Consider `COC(=O)C1=NN2c3ccccc3CN([C@@H](C)c3ccccc3)C(=O)[C@H]2[C@@H]1C`, for which the TGI in the assay with EKVX NSCLC and with LOX IMVI melanoma was more than 100 µM each time.
Consider `CC(=O)N(C)SCC(NC(=O)C(Cc1ccccc1)NC(=O)OCC1c2ccccc2-c2ccccc21)C(=O)NC(Cc1ccccc1)C(=O)NC(Cc1cn(C=O)c2ccccc12)C(=O)NC(CCCCNC(=O)OCC1c2ccccc2-c2ccccc21)C(=O)NC(C(=O)NC(CSN(C)C(C)=O)C(=O)NC(C(N)=O)C(C)O)C(C)O` (centres undefined) (Fmoc-F[X31]FW(For)K(Fmoc)T[X31]T-NH2; configuration not given here), for which the TGI with EKVX NSCLC, in the assay with IGROV1 ovarian and in the assay with LOX IMVI melanoma was more than 100 µM each time.
In the case of `Nc1nc(NCCOCP(=O)(O)O)c(N)c(=O)[nH]1`, the TGI with EKVX NSCLC, in the assay with IGROV1 ovarian and with LOX IMVI melanoma was more than 100 µM each time.
As to `CC/C=C/C(/C=C/C[C@]1(CC)C[C@H](CC)[C@H](CC(=O)O)OO1)CC` (some centres undefined), the figures for the TGI with EKVX NSCLC, with IGROV1 ovarian and in the assay with LOX IMVI melanoma were 3.77 µM, 0.899 µM and 1.76 µM, respectively.
The corresponding values for `O=C(O)CO/N=C1/C(c2c(O)[nH]c3ccccc23)=Nc2ccccc21` are more than 100 µM, more than 100 µM and more than 100 µM.
As to `O=C1/C(=C/c2ccc(Cl)cc2)Sc2scc(-c3cccc([N+](=O)[O-])c3)[n+]21`, the values for the TGI in the assay on EKVX NSCLC and with IGROV1 ovarian were 13.9 µM and 7.48 µM, respectively.
For `CC(=O)NC1C(OCc2ccccc2)OC(CO)C(O)C1OCC(=O)N1CCCC1C(=O)NC(CCC(=O)NCCCCCNc1c2ccccc2nc2cccc([N+](=O)[O-])c12)C(N)=O` (centres undefined), the TGI in the assay with EKVX NSCLC stood at 0.633 µM; in the assay on IGROV1 ovarian, 0.86 µM; in the assay with LOX IMVI melanoma it was 0.733 µM.
The corresponding values for `CCSC12CC3c4cccc5c4C(CN5C(=O)c4ccccc4)CC3(O1)N(C)C2=O` (centres undefined) are 83.4 µM, more than 100 µM and more than 100 µM.
The like results for `CC(=O)Nc1nnc(S(=O)(=O)NC(=S)Nc2ccc(Cl)cc2)s1` were, in that order, more than 100 µM, more than 100 µM and more than 100 µM.
The like results for `S=C(Nc1cccc(C2(N3CCCCC3)CCCCC2)c1)Nc1cccc(C2(N3CCCCC3)CCCCC2)c1` were, in that order, more than 100 µM, more than 100 µM and 26.7 µM.
As to `NCCCCCNOCCCN`, the TGI in the assay on EKVX NSCLC, with IGROV1 ovarian and in the assay with LOX IMVI melanoma was more than 100 µM in each case.
On to `Cc1cn2c(/C=C3/C(=O)Nc4ccccc43)c(C)nc2s1`, for which the TGI in the assay on EKVX NSCLC is more than 100 µM; in the assay on IGROV1 ovarian, more than 100 µM; with LOX IMVI melanoma it was 70.4 µM.
With `COC1C(OC(N)=O)C(O)C(Oc2ccc3c(O)c(NC(=O)c4ccc(O)c(CC=C(C)C)c4)c(=O)oc3c2C)OC1(C)C` (centres undefined), the TGI with EKVX NSCLC and with IGROV1 ovarian was more than 100 µM each time.
In the case of `CNc1ncnc2c1cnn2Cc1cn(CCCCO)nn1`, the TGI in the assay on EKVX NSCLC, in the assay on IGROV1 ovarian and in the assay with LOX IMVI melanoma was more than 100 µM in each case.
Turning to `C=CC[C@H]1[C@H](O[Si](C)(C)C(C)(C)C)C=CC(=O)[C@@H]1CC(=O)OCC`, the TGI amounted to 24.2 µM in the assay with EKVX NSCLC, 32.8 µM with IGROV1 ovarian and 32 µM with LOX IMVI melanoma.
Take `CC[C@H](C)[C@H]1NC(=O)[C@@H](NC(=O)[C@@H](CC(C)C)N(C)C(=O)C2CCCN2C(=O)[C@H](C)O)[C@@H](C)OC(=O)[C@H](Cc2ccccc2)N(C)C(=O)[C@@H]2CCCN2C(=O)[C@H](CC(C)C)NC(=O)[C@@H](C)C(=O)[C@H](C(C)C)OC(=O)C[C@@H]1O` (some centres undefined): the results for the TGI with EKVX NSCLC and in the assay on LOX IMVI melanoma were 0.524 µM and less than 0.00625 µM, respectively.
For `Cc1ccc(-n2cc(-c3ccc(Cl)cc3)c(C#N)c2N)cc1`, the TGI was 30.5 µM with EKVX NSCLC, 29.9 µM in the assay on IGROV1 ovarian and 29.8 µM with LOX IMVI melanoma.
Consider `C=CCC1C2CCC(O[Si](C(C)C)(C(C)C)C(C)C)(C(C(=O)OC)C2)C1O` (centres undefined), for which the TGI in the assay on EKVX NSCLC and with IGROV1 ovarian was more than 100 µM in each case.
On to `O=c1c(Sc2ncccn2)c(Sc2ncccn2)cnn1CCl`, for which the TGI amounted to 8.65 µM in the assay on EKVX NSCLC, 4.76 µM in the assay on IGROV1 ovarian and 5.28 µM with LOX IMVI melanoma.
The corresponding values for `NCCC1([N+](=O)[O-])CCNCC1` are more than 100 µM, more than 100 µM and more than 100 µM.
With `CCOC(=O)c1c(NC(=O)c2ccc(Br)cc2)sc2c1CCCC2`, the TGI in the assay on EKVX NSCLC and in the assay on IGROV1 ovarian was more than 100 µM in each case.
For `CSc1nc(-c2ccc(Cl)cc2)c(C#N)c(=O)[nH]1`, the TGI in the assay on EKVX NSCLC and in the assay with IGROV1 ovarian was more than 100 µM in each case.
For `CC(Nc1n[nH]c(=O)c2c1nnn2Cc1ccccc1)c1ccccc1` (centres undefined), the TGI with EKVX NSCLC was more than 100 µM. In the assay on LOX IMVI melanoma, the GI50 is > 100 µM and 32.7 µM; the TGI was more than 100 µM.

The values above are taken from PubChem BioAssay (NCI).
